Experiments:
Plasmodium falciparum [1] = assay: Antimalarial activity against chloroquine-resistant Plasmodium falciparum W2 after 72 hrs by parasite LDH assay; type: functional, organism-based; conditions: W2, 72 h
Plasmodium falciparum [2] = assay: Antimalarial activity against chloroquine-sensitive Plasmodium falciparum D10 after 72 hrs by parasite LDH assay; type: functional, organism-based; conditions: D10, 72 h

Question: How did the IC50 (Plasmodium falciparum [1]) turn out when `CC/C=C/[C@H](CC)C[C@@]1(C)C[C@@H](CC)[C@@H](CC(=O)OC)OO1` [PLAKORTIN] was run?
Answer: The IC50 was 0.39 µM.

Question: Which results are given for `C/C=C(C)/C=C/CCC[C@]1(OC)C[C@H](C)[C@H](CC(=O)OC)OO1` [MANADOPEROXIDE A]?
Answer: IC50 (Plasmodium falciparum [2]): 6.88 µM; IC50 (Plasmodium falciparum [1]): 3.74 µM

Question: Which IC50 (Plasmodium falciparum [2]) does the source give for `CC/C=C(C)/C=C/CCC[C@]1(OC)C[C@H](C)[C@H](CC(=O)OC)OO1` [MANADOPEROXIDE B] here?
Answer: The IC50 was 6.76 µM.

Question: And the IC50 (Plasmodium falciparum [1])?
Answer: The IC50 was 3.69 µM.

Question: Which IC50 (Plasmodium falciparum [2]) does the source give for `COC(=O)C[C@@H]1OO[C@@](CCC[C@H](O)/C=C(\C)[C@H](C)O)(OC)C[C@@H]1C` [MANADOPEROXIDE D] here?
Answer: Its IC50 is 10.4 µM.

Question: What about the IC50 (Plasmodium falciparum [1]) of the same molecule?
Answer: The IC50 was 7.93 µM.

Question: For `COC(=O)C[C@@H]1OO[C@@](CCC/C=C/C(C)=O)(OC)C[C@@H]1C` [MANADOPEROXIDE C], which IC50 (Plasmodium falciparum [2]) is on record?
Answer: Its IC50 is 4.54 µM.

Question: What about the IC50 (Plasmodium falciparum [1]) of the same molecule?
Answer: Its IC50 is 2.33 µM.

Reference: ChEMBL document CHEMBL1166001, “Manadoperoxides A-D from the Indonesian sponge Plakortis cfr. simplex. Further insights on the structure-activity relationships of simple 1,2-dioxane antimalarials” (J Nat Prod, 2010)
